Results: patent US4731377A, “Antitumor cyclic peroxides” (Harbor Branch Oceanographic Institute, Inc., priority 1986, dated 1988)
In brackets after ≈: the same amount, converted by molar mass.

Test system: P-388 mouse leukemia cells
Assay: P388 mouse leukemia cell cytotoxicity assay (24-well plate screening / tube assay)
Type: cell-based
Conditions: for concentration inhibiting cell growth relative to the concentration required for inhibition by chondrillin (composition 1): 50% inhibition stated for II/2 and III/3, P388 mouse leukemia cells; for IC50: P388, P-388 mouse leukemia cells, 48 hours incubation, 5% CO2, read-out: P388 IC50, Inhibiting concentration 50% of cell growth; for antitumor activity ranking among the compositions tested: Table 2, P388, result in words; for cytotoxic in vitro against P-388 murine leukemia cells: result in words
Excerpt: The following assay method was utilized to illustrate the antitumor effectiveness of the compositions of Formulae II - VI corresponding to compositions 2-5 of the examples. Data is also provided for the chondrillin composition (1) which has also been isolated according to the process of the invention.
388 MOUSE LEUKEMIA CELL CYTOXICITY ASSAY 24-WELL PLATE SCREENING ASSAY AND TUBE ASSAY PROTOCOL
Media--Dulbeccos with glucose and pyruvate (Biologos, Inc) with 10% horse serum, (Biologos, Inc) and 1.0 ug/ml gentamicin (Gibco).
Cells - P-388 mouse leukemia cells (American Type Culture Collection) in media at a concentration of 5×10^4 W cells/ml Sterile 24-well culture plates (Nunc) for screening or 12×75 mm glass culture tubes (Becton-Dickinson) for tube assay. Microdispenser with 1 to 5 ul increments (Drummond Scientific Co. Broomall PA).
Finnpipette with 5 to 50 μl increments and Finnpipette with 50 to 200 μl increments.
1. A sample of the composition to be assayed is added to each well or tube in an amount of from 200 ug/ml and 100 ug/ml for screening. For DDC of known active compounds use log concentrations from 100 ug/ml to 0.01 ug/ml for range-finding assay; when range has been determined, use five concentrations between highest and lowest active concentrations.
2. Add 2.0 ml of 5×10^4 cell suspension in media to each well or tube. Tubes are loosely covered with parafilm.
3 Incubate in 5% CO2 incubator 48 hours.
4. Visually read plates with inverted microscope, comparing with solvent control. Assign activity as follows:
Repeat all positive samples using tube assay.
5. For Tube assays--Mix tube well on vortex and remove 0.5 ml aliquot and add to 9.5 ml of diluent fluid (Isoton - Coulter) in Accuvette (Coulter) and mix well by inversion immediately before counting, taking care not to produce excessive bubbles. Count on Coulter Counter (Counter is set to count 0.5 ml of the solution; therefore counts may be converted to cell/ml in original assay tube by multiplying count by 40.
Positive control--Vinblastine or Vincristine in aqueous solution.
Always run a solvent control in duplicate in the last two wells of each plate or four tubes for each rack of 72 or less tubes. Also run four wells or tubes with media and cells only per run of plates or tubes. When using volumes of aqueous solutions greater than 200 μl, dry sample and bring up to desired concentration in media.
Compositions 1-5 of formulae I/1; II/2; III/3; IV/4; and V/5 are cytotoxic in vitro against P-388 murine leukemia cells.

| Structure (SMILES) | concentration inhibiting cell growth relative to the concentration required for inhibition by chondrillin (composition 1) [%] | IC50 [µg/mL] | antitumor activity ranking among the compositions tested | cytotoxic in vitro against P-388 murine leukemia cells |
| --- | --- | --- | --- | --- |
| CC=CC=CCCCCCCC[C@]1(OC)C=C[C@@H](CC(=O)OC)OO1 (relative stereo) [Composition II/2] | 1 | 0.05 (≈ 0.142 µM) | greatest antitumor activity of the compositions tested | cytotoxic |
| CCCCCCCCCCCC[C@]1(OC)C=C[C@@H](CC(=O)OC)OO1 (relative stereo) [Composition III/3] | 1 | 0.05 (≈ 0.14 µM) | greatest antitumor activity of the compositions tested | cytotoxic |
| CC=CC=CCCCCCCCCC[C@]1(OC)C=C[C@@H](CC(=O)OC)OO1 (relative stereo) [Composition IV/4] | 2 | 0.1 (≈ 0.263 µM) | – | cytotoxic |
| CC=CCCCCCCCCC[C@]1(OC)C=C[C@@H](CC(=O)OC)OO1 (relative stereo) [Composition V/5] | 2 | 0.1 (≈ 0.282 µM) | – | cytotoxic |
| CCCCCCCCCCCCCCCCC1(OC)C=CC(CC(=O)OC)OO1 (stereo not shown) [Composition I/1, chondrillin, reference compound] | – | 5 (≈ 12.1 µM) | – | cytotoxic |
